Patent US20220362182A1, “METHODS FOR REVERSING HEPATIC STEATOSIS” (BRIGHTSEED, INC., priority 2020, published 2022)
Entries after “also recorded” stand apart in the source; their conditions may differ.

Assays:
CYP26A1 mRNA = assay: hepatic CYP26A1 mRNA in DIO mice; type: in vivo; details: mouse liver
Protocol: (§1) Quantitative PCR (Q-PCR) from in vitro cell culture experiments used total RNA purified using RNeasy Kits (Qiagen). For liver tissue samples, total RNA was isolated using Trizol (Invitrogen) and prepared for RNAseq (mouse liver DMSO and NCT, N=3). cDNA was amplified using 3 μg of total RNA using qScript cDNA SuperMix (Quanta BioSciences, Beverly, Mass., USA). QPCR analysis was performed using SYBR® Select Master Mix (Applied Biosystems) and ABI 7900HT (Applied Biosystems, Thermo Fisher Scientific). The Ct values of mRNA expression were then normalized to the 18 s rRNA values and are expressed as fold change over samples from mice fed normal chow for in vivo experiments or DMSO controls for cell culture experiments.
(§2) For dose response experiments, mice were injected intraperitoneally with 10% DMSO as vehicle control or 4 different doses of NCT (30, 60, 120 and 240 mg/kg of body weight) dissolved in 10% DMSO. Mice received 2 doses per day with a 5 h interval between injections for 3 days. To test the effect of NCT (Sundia MediTech Company, Ltd., Custom synthesis), 200 mg/kg was injected IP bid for 14 days. On day 15, mice received a final dose of NCT followed by IP injection with 3 g/kg dextrose. One h later, blood samples were collected and mice were euthanized using pentobarbital. Total mouse, liver and epididymal fat pad weights were measured. […]

HNF4a mRNA = HNF4a mRNA in primary human hepatocytes; type: cell-based; details: high fat media, 5, 15, 40 µM, Day 4 to Day 10
Protocol: Experiments with primary human hepatocytes were performed by CN-Bio (Cambridge, UK). Primary human hepatocytes (PHHs), human Kupffer cells (HKs) and human stellate cells (HSCs) were seeded onto CN-Bio's PhysioMimix LC12 MPS culture plates at 6×10^5 cells for PHHs and 6×10^4 cells for HKs and HSCs in 1.6 ml of CN-Bio's HEP-lean media with 5% FCS. Throughout the experiment the cells were maintained at a flow rate of 1 μl/s. After 24 h (Day 1) of seeding, the media was changed to HEP-lean media and the cells were incubated until day 4 to allow the cells to form microtissues. At day 4 post seeding, media was changed to HEP-fat media and treated with DMSO or NCT (5, 15, 40 μM). Media was replaced on days 6 and 8. Cells were harvested on day 10 for RNA extraction. Data are presented as mean ±SEM of three or more samples as indicated. Statistical significance was assessed using Student's t-test, ANOVA or R^2 coefficient of correlation.

LC3B = assay: anti-LC3B Western blot in T6PNE cells; type: cell-based, human; details: 10 μM
Protocol: Whole-cell extracts were prepared by incubation in RIPA buffer (Invitrogen) containing protease inhibitors (Calbiochem, San Diego, Calif.). Protein ([…]) was separated on 12% or 16% Tri-Glycine gels (Invitrogen) and transferred to Immobilon P membrane (0.2 μm pore, Millipore). After 1 h in phosphate-buffered saline-Tween (PBST) with 3% milk, membrane was incubated with antibodies to HNF4α (mouse, Novus, 1:1000), LC3B (rabbit, Novus, 1:500), p62 (SQSTM1, mouse, Santa Cruz, 1:1000) or β-actin (mouse, Santa Cruz, 1:2000), followed by secondary antibody conjugated to horseradish peroxidase (1:5000, Jackson Immune).

HNF4α = molecular target: T1, HNF4α (Mus musculus, UniProt P49698); assay: hepatic HNF4α expression in DIO mice; type: in vivo; details: 200 mg/kg bid IP, 14 days; for hepatic HNF4α protein (nuclear staining): 200 mg/kg
T1 construct: from tissue; host or cells: liver of C57BL/6 J DIO male mice
T1 sequence (P49698 1-474): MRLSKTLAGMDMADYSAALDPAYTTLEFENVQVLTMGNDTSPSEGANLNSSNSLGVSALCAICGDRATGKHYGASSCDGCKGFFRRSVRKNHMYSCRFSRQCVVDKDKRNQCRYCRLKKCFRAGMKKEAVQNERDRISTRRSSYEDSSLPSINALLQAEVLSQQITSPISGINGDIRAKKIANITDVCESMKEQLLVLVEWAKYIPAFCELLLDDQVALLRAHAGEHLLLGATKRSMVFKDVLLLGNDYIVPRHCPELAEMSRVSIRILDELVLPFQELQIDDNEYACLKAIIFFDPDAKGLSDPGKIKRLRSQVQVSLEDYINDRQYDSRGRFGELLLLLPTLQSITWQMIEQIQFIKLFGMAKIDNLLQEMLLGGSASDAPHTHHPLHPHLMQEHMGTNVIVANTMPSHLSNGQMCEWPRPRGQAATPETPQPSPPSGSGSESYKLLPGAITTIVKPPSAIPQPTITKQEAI
Protocol: as §1
as §2, with “measured. Dissected liver samples were washed in cold PBS, cut into small pieces and distributed for analyses. For RNA isolation and ELISA, liver samples were snap frozen using liquid nitrogen and stored at −80° C.” for “measured.”
Frozen liver sections were permeabilized using 0.3% Triton-X and incubated in antigen retrieval solution (Antigen retrieval citrate, Biogenex) at sub boiling temperature for 10 min. […] Slides were mounted using fluorescence mounting medium and images were obtained at 40× magnification using an Olympus IX71 fluorescence microscope. Fluorescence intensity of HNF4α-stained nuclei was calculated using MetaMorph TL software (version 7.6.5.0, Olympus).

hepatic steatosis = assay: oral administration in mice (hepatic steatosis); type: in vivo, mouse; details: subsequent studies
dihydroceramides = assay: lipidomic analysis of ceramides and dihydroceramides in T6PNE cells; type: cell-based, human; details: 2 days after treatment
Protocol: Ceramides and dihydroceramides were measured in the UCSD Lipidomics Core Facility as previously described (Quehenberger et al.). Briefly, samples were extracted using the butanol: methanol (BUME) method. The lipid layer was collected and run on a Thermo-Vanquish UPLC (Thermo Scientific) with a Cortecs T3 (C18), 2.1 mm×150 mm; 1.8 uT3 column and a binary solvent system. Mass spectrometry employed a Thermo Q Exactive instrument with MS/MS data dependent acquisition scan mode and LipidSearch software (Thermo Fisher Scientific).

SPNS2 mRNA = assay: SPNS2 qPCR in mouse pancreas; type: in vivo
Protocol: as §1

[1] = listed as N-trans-caffeoyltyramine

SMILES: O=C(/C=C/c1ccc(O)c(O)c1)NCCc1ccc(O)cc1 [NCT, N-trans-caffeoyltyramine]
- hepatic CYP26A1 mRNA (CYP26A1 mRNA): induced CYP26a1
- HNF4a mRNA (HNF4a mRNA): significantly induced
- LC3B-II to LC3B-I ratio (LC3B): induced increases
- hepatic HNF4α mRNA (HNF4α): reversed the loss
- hepatic HNF4α protein (nuclear staining) (HNF4α): reversed the loss of HNF4α protein; also recorded: recovery of normal hepatic HNF4α expression
- hepatic HNF4α protein (nuclear staining) (HNF4α; [1]): reversed that reduction; also recorded: increased the HNF4a staining
- hepatic steatosis after oral administration (hepatic steatosis): effective in reducing hepatic steatosis in mice
- dihydroceramide production (dihydroceramides): multiple dihydroceramides were increased; also recorded: induced multiple identical dihydroceramides
- dihydroceramide production (dihydroceramides; [1]): Dihydroceramide was induced
- SPNS2 expression in mouse pancreas (SPNS2 mRNA): induced SPNS2 expression
